Measured values taken from US20200054594A1 (priority 2017, published 2020).

Assays:
incision pain in rats = assay: Incision pain test in rats, mechanical pain threshold by Electronic Von Frey; assay type: in vivo, male Wistar rats
rats = assay: Toxic effects / adverse reactions observed during the rat incision pain study; assay type: in vivo, male Wistar rats; settings: single agents, i.v.
Experimental: The rats were randomly divided into the following groups according to the body weight: blank control group (n=8), model group (n=8) and drug-administered group (n=48). The drug-administered group was divided into the following groups: compound 19-0.1 mg/kg group (n=8), compound 19-0.3 mg/kg group (n=8), compound 19-0.03 mg/kg+compound 35-0.1 mg/kg group (n=8), compound 19-0.03 mg/kg+compound 35-0.3 mg/kg group (n=8), compound 19-0.1 mg/kg+compound 35-0.1 mg/kg group (n=8), and compound 19-0.1 mg/kg+compound 35-0.3 mg/kg group (n=8). The model group and drug-administered group were subjected to an incision surgery. During the surgery, the rats were anesthetized with isoflurane. An incision (1 cm long) passing through the skin and fascia was made with a No. 10 surgical blade in the middle of the left hind paw. The skin was sutured with a 3-0 sterile silk surgical suture. The injured site was disinfected with antibiotic ointment and iodophor. The animals were returned to their original place to recover overnight. After 24 hours, the drug was injected through the tail vein, and the blank control group and the model group were administrated with the corresponding solvents. […] The mechanical pain threshold of each group was measured by the Electronic Von Frey 30 minutes after the injection to evaluate the analgesic effect of the drug on the surgical incision pain and the intensity thereof.

SMILES	increase of tenderness threshold compared with the model group (incision pain in rats; rat, in vivo, iv, 0.3 mg/kg)	tenderness threshold (incision pain in rats; rat, in vivo, iv, 0.3 mg/kg)	toxic effects (such as slow movement and stiffness of limbs in rats), compound 19 alone versus compound 35 alone (rats)	increase of tenderness threshold compared with the model group (incision pain in rats; compound 19 0.1 mg/kg i.v. alone, 30 minutes after administration)	tenderness threshold (incision pain in rats; compound 19 0.1 mg/kg i.v. alone, 30 minutes after administration, model group 11.08 g, blank control 37.68 g)
CNC(=O)NC1CCN(C(=O)[C@@H](CCCCN)NC(=O)[C@@H](CC(C)C)NC(=O)[C@@H](Cc2ccccc2)NC(=O)[C@H](N)Cc2ccccc2)CC1 [compound 35, (R)—N—((R)-6-Amino-1-(4-(3-methylureido)piperidin-1-yl)-1-oxohexan-2-yl)-2-((R)-2-((R)-2-amino-3-phenylpropanamido)-3-phenylpropanamido)-4-methylpentanamide]	102.3%	22.42 g	–	–	–
CCO[C@H]1CC[C@H](NCC[C@@]2(c3ccccn3)CCOC3(CCCC3)C2)c2ccccc21 [compound 19, (1S,4S)-4-Ethoxy-N-(2-((R)-9-(pyridin-2-yl)-6-oxaspiro[4.5]decan-9-yl)ethyl)-1,2,3,4-tetrahydronaphthalen-1-amine]	–	–	more obvious toxic effects	233.8%	36.99 g
